We go through three compounds from article PMC8365602 (Journal of Medicinal Chemistry, 2021).

The test system of data set [1] is reconstructed human epidermis (RHE). Nature of the data set: Experimental atopic dermatitis in reconstructed human epidermis (RHE). The conditions noted are these: 1 μM, control. Format: cell-based. The protocol:
Compound 27a was evaluated in an inflammatory model of RHE by Synelvia S.A.S. (Labège, France) according to the company’s protocol.[88] In brief, primary human keratinocytes were used to generate RHE on polycarbonate filters as described.[88] RHE was allowed to acclimate for 6 days (5% CO2, 37 °C) prior to incubation with 27a (5, 10, 25 μM), dexamethasone (1 μM), or vehicle (0.05% DMSO), and a proinflammatory cytokine cocktail for 4 days at 5% CO2 and 37 °C. The culture medium including compounds and cytokines was changed on days 6, 8, and 10. Each culture condition was repeated three times. Acute cytotoxicity of 27a was excluded at the concentrations studied within 24 h by measuring the mitochondrial dehydrogenase activity (MTT assay).
Morphological changes (i.e., spongiosis and the formation of keratohyalin granules) were evaluated for sections of paraffin-embedded RHEs after hematoxylin-eosin staining.[89] The permeability of the skin barrier was estimated from the transepidermal water loss at the RHE surface.[90] The surface pH was determined with a pH electrode as reported.[89] The permeability of the stratum corneum was addressed by applying Lucifer yellow onto the RHE surface and inspecting the penetration by fluorescence microscopy.[88] TSLP and IL-8 levels were analyzed by ELISA (according to the specifications of Synelvia S.A.S.) in the culture medium on day 2 and day 4 after addition of cytokines, respectively.

For data set [2], the target named is T1, 5-LOX (Homo sapiens, UniProt P09917).
T1 sequence (P09917 1-674): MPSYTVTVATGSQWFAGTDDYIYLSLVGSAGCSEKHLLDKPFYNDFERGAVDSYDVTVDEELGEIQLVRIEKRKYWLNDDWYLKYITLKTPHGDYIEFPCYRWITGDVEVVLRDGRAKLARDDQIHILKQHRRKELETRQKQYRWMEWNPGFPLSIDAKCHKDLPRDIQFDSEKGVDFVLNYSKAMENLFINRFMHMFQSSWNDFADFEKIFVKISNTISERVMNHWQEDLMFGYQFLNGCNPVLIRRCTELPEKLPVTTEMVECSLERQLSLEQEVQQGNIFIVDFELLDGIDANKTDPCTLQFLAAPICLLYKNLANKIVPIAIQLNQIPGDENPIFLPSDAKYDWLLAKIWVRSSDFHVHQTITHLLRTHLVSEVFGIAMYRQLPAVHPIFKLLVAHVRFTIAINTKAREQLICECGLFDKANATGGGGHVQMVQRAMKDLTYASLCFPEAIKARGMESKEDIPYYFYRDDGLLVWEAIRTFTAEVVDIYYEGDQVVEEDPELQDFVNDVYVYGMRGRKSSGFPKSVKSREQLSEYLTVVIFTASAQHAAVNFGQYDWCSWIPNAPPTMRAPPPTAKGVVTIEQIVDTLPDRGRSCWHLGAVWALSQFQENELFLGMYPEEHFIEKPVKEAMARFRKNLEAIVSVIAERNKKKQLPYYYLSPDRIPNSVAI
The experiment in a line: 5-LOX product formation in activated PMNL.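 Further: freshly isolated human PMNL in PBS pH 7.4 plus glucose, preincubated 10 min at 37 °C with compound, 5-LOX products (all-trans LTB4 isomers, 5-HETE) quantified by RP-HPLC.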 The settings on record: PMNL, read-out: 5-LOX PMNL residual activity at 3 μM.

Data set [3] deals with T1, 5-LOX. Nature of the data set: Tryptophan fluorescence spectroscopy of 5-LOX. The data set is classed as binding. The arrangement: made in house; host or cells: E. coli Bl21 (DE3). The settings on record: 5-LOX titrated with compound, 0–10 μM. As to the method: Fluorescence spectroscopy measurements on human recombinant 5-LOX (Abcam, Cambridge, U.K.) were conducted in PBS pH 7.4 at 25 °C using an Edinburgh Instruments FLS920 Series fluorescence spectrophotometer (Livingston, U.K.). […] The concentration range of 5-LOX used through the experiments was 0.3–0.6 μM. 5-LOX was titrated with a stock solution of the test compounds in dimethylformamide to yield an experimental compound concentration in the range of 0–10 μM. The final dimethylformamide concentration was kept under 5%. After each addition, the sample was incubated for 10 min before measurement. The fluorescence emission intensity values were corrected for dilution and background noise. All conditions were measured independently and in duplicate.
The fluorescence spectral shifts were analyzed by monitoring the alterations in the spectral center of mass by estimating the intensity-averaged emission wavelength (⟨λ⟩), as calculated from the following equation, where Fi is the fluorescence emission intensity at wavenumber νi, and the summation was performed over the range of measured F values [drawing 1] 1

The target in data set [4] is T1, 5-LOX. The experiment in a line: Cell-free 5-LOX activity (isolated human recombinant enzyme). The settings on record: read-out: 5-LOX enzyme residual activity at 1 μM.
The next data set concerns monocytes. Nature of the data set: Monocyte membrane integrity (LDH release). Format: cell-based, human. The conditions noted are these: higher concentrations (>1 μM). The protocol: To measure mitochondrial dehydrogenase activity, 3-(4,5-dimethylthiazol-2-yl)-2,5-diphenyltetrazolium bromide (MTT) (20 μL, 5 mg/mL, Sigma-Aldrich) was added to PBMC. After 4 h in the darkness, the formed formazan product was solubilized (10% SDS in 20 mM HCl) and the absorbance was read at 570 nm using a Multiskan Spectrum microplate reader (Thermo Fisher Scientific).[81]
LDH release was measured in monocytes using a CytoTox 96 nonradioactive cytotoxicity assay (Promega, Madison, WI) according to the manufacturer’s instruction using Triton X-100 (0.8%) as the maximum LDH release control.
(In general: LDH leaks from cells whose membrane has failed.)

Data set [5] in a line: Hepatic metabolism in human liver-on-chip. The settings on record: 1 μM, 48 h. The data set is classed as in vitro ADME. The protocol: LCMs, 27a, and 27a metabolites were extracted from PMNL, medium of the liver-on-chip, murine plasma, peritoneal exudate, or homogenized murine tissue as described.[6] In brief, PBS pH 7.4, methanol, chloroform, and saline (final ratio: 14:34:35:17) were successively added together with 13d (9 pmol) as the internal standard. The organic layer was evaporated, and the extracted LCMs were dissolved in methanol.
LCMs, 27a, and 27a metabolites were separated at a flow rate of 0.8 mL/min and a column temperature of 45 °C, with acetonitrile/H2O (10:90) as mobile phase A and acetonitrile as mobile phase B, both acidified with 0.07% formic acid. The linear gradient from A/B = 50:50 to 0:100 within 4.5 min was followed by isocratic elution with A/B = 0:100 for 1 min. MS parameters were adjusted according to Pein et al.[6] and as detailed in Table S3. Signal intensities were normalized to the internal standard 13d, and concentrations were calculated using external calibration curves as specified in Table S3. […]
The medium between the two membranes was renewed, and the vehicle (DMSO), 12a, or 27a were added. […] 12a, 27a, and their metabolites were extracted from the combined fractions and analyzed by UPLC-MS/MS.[6]

Data set [6] can be described thus: Radical scavenging activity (DPPH). The conditions noted are these: 25 μM, positive control. As to the method:
Compound 27a was incubated with 2,2-diphenyl-1-picrylhydrazyl (DPPH, Sigma-Aldrich; 50 mM) in ethanol for 30 min, and the absorbance was measured at 520 nm using a Multiskan Spectrum Microplate Reader (Thermo Fisher Scientific).[72] The positive control ascorbic acid (Sigma-Aldrich; 25 μM) scavenged DPPH radicals by 36 ± 11%.
(In general: DPPH is a stable violet radical that fades when it is reduced.)

Consider `C[C@@H]1C[C@H]2[C@@H]3CCC4=CC(=O)C=C[C@]4(C)[C@@]3(F)[C@@H](O)C[C@]2(C)[C@@]1(O)C(=O)CO` [Dexamethasone, reference compound], for which the “Cytokine-induced responses in RHE” value in data set [1] was “suppressed these cytokine-induced responses”.
`Cc1c(C)c2c(c(C)c1O)CC[C@@](C)(CCCC(C)CCCC(C)CCCC(C)C(=O)O)O2` (stereo partly drawn) [Compound 12a, α-T-13′-COOH]: the remaining activity at 3 µM at 5-LOX [2] was 2 ± 0.8%. At 5-LOX [3], the “Shift of spectral center of mass of intrinsic Trp fluorescence of 5-LOX” value is given as “substantially shifted to a shorter wavelength”. In addition, the remaining activity at 1 µM on 5-LOX [4] turned out to be 0.8 ± 0.2%. The “LDH release from monocytes at higher concentrations” value with monocytes is listed as “not evident”. Further, the Hepatic metabolism result in data set [5] is reported as “truncated to metabolites with varying side-chain lengths”.
On to `O=C1O[C@H]([C@@H](O)CO)C(O)=C1O` [ascorbic acid, reference compound], for which the “Scavenging of DPPH radicals” value in data set [6] is reported as 36 ± 11%.
